Laboratory results from patent publication US20080280860A1, “Use of Vitamin D Compounds to Treat Endometriosis” (BioXell S.p.A., priority 2005, published 2008).

Assays:
[1] = system: endometriotic cells; assay: Cell adhesion of endometrial stromal cells from treated animals; type: in vivo; settings: animals treated 100 ug/kg orally once a day for two days; 5 subjects per group; FIG. 9
Method: Paired animals were treated wth Compound A (100 ug/kg) orally once a day, for two days. The animals were then sacrificed and uterus horns were removed. Myometrium was removed by scraping with a scalpel blade and remaining endometrial tissue was reduced to small fragments with scissors.
Tissue was minced into small pieces (1 to 2 mm^3) and incubated at 37° C. for 1 h with 0.1% type A collagenase. At the end of the incubation, single stromal cells were separated from large dumps of epithelium by a 10 min. period of differential sedimentation at unity gravity. The top 8 ml of medium, containing predominantly stromal cells, were then slowly removed and the cells were collected by centrifugation. […]
Polystyrene 96-well plates (Costar) were coated with 50 ul/well of 8 mg/ml extracellular matrix (ECM) (Sigma, USA), and left uncovered in a laminar flow hood overnight to allow evaporation. […] The sample fluorescence in each well was measured using a fluorescence microplate reader with filters appropriate for 480 nm excitation and 520 nm emission maxima. Results were expressed as the percentage of total cells assuming that the adhesion of cells in the control was 100%. The percentage of adhesion was determined using the formula: (Abs after being rinsed with PBS/Abs no rinse)×100%. […]

[2] = system: endometriotic lesions; assay: In vivo model of endometriosis (lesion weight); parameters: species or system Balb/c mice
Method: Balb/c donor mice were injected with estrogen (Estradiol AMSA; 3 ug/mouse) and one week later were sacrificed and the uterus was removed, the two horns isolated and reduced to small fragments. The fragments derived from the isolated uterine horns were resuspended in saline with ampicillin (1 mg/ml) and then injected into the peritoneum of two recipient Balb/c mice, previously anesthesized, through a 0.5 cm incision in the abdominal wall. […] Antibiotic (ampicillin 1 mg/ml) was administered on the day of the surgery and on the day after. […] […] Lesions can be identified as translucid isolated or grouped cysts mainly found on the abdominal wall, on the pancreas, and around the uterus. In some cases the lesions are necrotic. The lesions were carefully removed and put on a glass slide to dry for 48 hours, and then were weighed. In other experiments lesions are transferred to a lysis solution and mRNA isolated for gene expression analysis. For immunohistochemical analysis, lesions were frozen immediately after isolation.
Balb/c donor mice were injected with estrogen (Estradiol AMSA; 3 ug/mouse) and one week later were sacrificed and the uterus was removed, the two horns isolated and reduced to small fragments. The fragments derived from the isolated uterine horns were resuspended in saline with ampicillin (1 mg/ml) and then injected into the peritoneum of two recipient Balb/c mice, previously anesthetised, through a 0.5 cm incision in the abdominal wall. Antibiotic (ampicillin 1 mg/ml) was administered on the day of the surgery and on the day after. […] Dosage levels of the test compounds were at the maximum tolerated levels for the compound in question, i.e. 1-alpha-fluoro-25-hydroxy-16,23E-diene-26,27-bishomo-20-epi-cholecalciferol (Compound A) 100 ug/kg, calcitriol (Compound B) 0.3 ug/kg and 1,25-dihydroxy-21-(3-hydroxy-3-methylbutyl)-19-nor-cholecalciferol (Compound C) 3 ug/kg.
(§1) […] Lesions can be identified as translucid isolated or grouped cysts mainly found on the abdominal wall, on the pancreas, and around the uterus. In some cases the lesions are necrotic. The lesions were carefully removed and put on a glass slide to dry for 48 hours, and then were weighed.
Balb/c donor mice were injected with estrogen (Estradiol AMSA; 3 ug/mouse) and one week later were sacrificed and the uterus was removed, the two horns isolated and reduced to small fragments. The fragments derived from the isolated uterine horns were resuspended in saline with ampicillin (1 mg/ml) and then injected into the peritoneum of recipient Balb/c mice, previously anesthetised, through a 0.5 cm incision in the abdominal wall. Antibiotic (ampicillin 1 mg/ml) was administered on the day of the surgery and on the day after. […]
as §1, with “weighed. At least 10 test animals were used in each group.” for “weighed.”
Further experiments were performed using Compound A at 100 ug/kg but varying the time at which administration of the vitamin D compound was initiated and the time point at which administration was ceased. Specifically: (i) administration for 1 week prior to injection of the uterine fragments (ii) administration for 2 weeks subsequent to injection of the uterine fragments (iii) administration for 1 week prior and 2 weeks subsequent to injection of the uterine fragments (iv) administration for 2 weeks, initiated two days subsequent to injection of the uterine fragments (v) administration for 2 weeks, initiated two weeks subsequent to injection of the uterine fragments. In these experiments, subjects were sacrificed at the later of two weeks post injection or the end of the treatment period as appropriate.

[3] = Example 3 dose/response, ip once a day, 5 days a week for two weeks, FIG. 7

C=C1/C(=C\C=C2/CCC[C@]3(C)C([C@@H](C)C/C=C/C(O)(CC)CC)=CC[C@@H]23)C[C@@H](O)C[C@@H]1F [Compound A, 1-alpha-fluoro-25-hydroxy-16,23E-diene-26,27-bishomo-20-epi-cholecalciferol]
adhesion of endometriotic cells [1]: dramatically reduce the adhesion
reduction in lesion weight, group (v) ([2]; 100 ug/kg, 2 weeks, initiated 2 weeks after uterus transfer, FIG. 8): 34%
reduction in lesion weight, group (iv) ([2]; 100 ug/kg, 2 weeks, initiated 2 days after uterus transfer, FIG. 8): 35%
reduction in lesion weight, group (i) ([2]; 100 ug/kg, administration for 1 week prior to injection of the uterine fragments, FIG. 8): 40%
reduction in lesion weight, group (iii) ([2]; 100 ug/kg, one week before and two weeks after uterus transfer, FIG. 8): 73%
reduction in lesion weight, group (ii) ([2]; 100 ug/kg, two weeks starting at the time of uterus transfer, FIG. 8): 48%
lesion weight, treated versus control (vehicle only) ([2]; Example 1, 100 ug/kg ip once a day, 5 days a week for two weeks, 17 pairs of mice, p=0.0034 paired, p=0.020 unpaired t test): significant reduction in lesion weight
lesion weight reduction between paired animals (mean ± standard error) ([2]; Example 2, 100 ug/kg ip once a day, 5 days a week for two weeks after uterus transfer, 24 mice per group): 51±11%
mean lesion weight ([2]; Example 2, 100 ug/kg ip, two weeks, miglyol control 8.452±1.039 mg): 3.527 ± 0.5400 mg
reduction in lesion weight compared with the other compounds tested ([2]; Example 2, each compound at its maximum tolerated level): most pronounced
lesion weight, treated versus control (vehicle only), statistical analysis ([2]; Example 2, each compound at its maximum tolerated level, ip once a day, 5 days a week for two weeks): significant reduction in lesion weight
reduction in lesion weight at 1/10 MTD [2, 3]: approximately 20%
reduction in lesion weight at around ⅓ MTD [2, 3]: approximately 35%
